Assay results as given in the NIST ThermoML archive (doi:10.1021/je030130y).
Numbers after ± are expanded uncertainties.

Assay: xn = mol fraction of the nth substance listed
Details: 101.3 kPa, Liquid; for viscosity: Capillary tube (Ostwald / Ubbelohde) method; for mass density: Pycnometric method

Clc1ccccc1 [chlorobenzene] + CN(C)C=O
Details	mass density, 298.15 K [kg/m3]	mass density, 303.15 K [kg/m3]	mass density, 308.15 K [kg/m3]	mass density, 313.15 K [kg/m3]	viscosity, 298.15 K [mPa·s]	viscosity, 303.15 K [mPa·s]	viscosity, 308.15 K [mPa·s]	viscosity, 313.15 K [mPa·s]
x2 = 0	1100.9 ± 0.4	1095.8 ± 0.4	1090.8 ± 0.4	1085.1 ± 0.4	0.756 ± 0.006	0.714 ± 0.006	0.673 ± 0.005	0.635 ± 0.005
x2 = 0.1473	1083.5 ± 0.4	1078.5 ± 0.4	1073.6 ± 0.4	1068.1 ± 0.4	0.79 ± 0.006	0.745 ± 0.006	0.701 ± 0.005	0.661 ± 0.005
x2 = 0.2093	1076.3 ± 0.4	1071.3 ± 0.4	1066.5 ± 0.4	1063.1 ± 4	0.804 ± 0.006	0.757 ± 0.006	0.712 ± 0.006	0.671 ± 0.005
x2 = 0.2762	1068.1 ± 0.4	1063.2 ± 0.4	1058.3 ± 0.4	1052.9 ± 0.4	0.818 ± 0.006	0.77 ± 0.006	0.723 ± 0.006	0.681 ± 0.005
x2 = 0.4032	1051.2 ± 0.4	1046.3 ± 0.4	1041.5 ± 0.4	1036.3 ± 0.4	0.838 ± 0.006	0.788 ± 0.006	0.739 ± 0.006	0.696 ± 0.005
x2 = 0.4661	1042.2 ± 0.4	1037.3 ± 0.4	1032.5 ± 0.4	1027.2 ± 0.4	0.847 ± 0.006	0.795 ± 0.006	0.745 ± 0.006	0.702 ± 0.005
x2 = 0.6084	1020.2 ± 0.4	1015.4 ± 0.4	1010.6 ± 0.4	1005.4 ± 0.4	0.862 ± 0.006	0.808 ± 0.006	0.757 ± 0.006	0.714 ± 0.006
x2 = 0.7009	1003.8 ± 0.4	999.1 ± 0.4	994.5 ± 0.4	989.4 ± 0.4	0.856 ± 0.006	0.803 ± 0.006	0.752 ± 0.006	0.709 ± 0.005
x2 = 0.7842	988.1 ± 0.4	983.4 ± 0.4	978.7 ± 0.4	973.7 ± 0.4	0.846 ± 0.006	0.794 ± 0.006	0.744 ± 0.006	0.702 ± 0.005
x2 = 0.9351	957.7 ± 0.3	953 ± 0.3	948.3 ± 0.4	943.4 ± 0.4	0.818 ± 0.006	0.769 ± 0.006	0.721 ± 0.006	0.683 ± 0.005
